The subject of experiment [1] is MCF7, hormone-independent human breast cancer cells. Briefly: Proliferation assay, MCF7. Type of experiment: cell-based. The following applies: MCF7, 96 h, 4 days incubation, crystal violet. An excerpt: (§1) Cultivated human tumor cells (MCF7, hormone-independent human breast cancer cells, related to ATCC HTB22; NCI-H460, human non-small-cell lung cancer cells, ATCC HTB-177, HCT 116, human colon cancer cells, ATCC CCL-247; DU 145, hormone-independent human prostate cancer cells, ATCC HTB-81; MaTu-MDR, hormone-independent, multiple pharmaceutical agent-resistant human breast cancer cells, EPO-GmbH, Berlin) were flattened out at a density of about 5000 cells/measuring point, depending on the growth rate of the respective cells, in a 96-well multititer plate in 200 μl of the corresponding growth medium. After 24 hours, the cells of one plate (zero-point plate) were colored with crystal violet (see below), while the medium of the other plates was replaced by fresh culture medium (200 μl), to which the test substances were added in various concentrations (0 μm, as well as in the range of 0.01-30 μm; the final concentration of the solvent dimethyl sulfoxide was 0.5%). The cells were incubated for 4 days in the presence of test substances. The cell proliferation was determined by coloring the cells with crystal violet: the cells were fixed by adding 20 μl/measuring point of an 11% glutaric aldehyde solution for 15 minutes at room temperature. After three washing cycles of the fixed cells with water, the plates were dried at room temperature. The cells were colored by adding 100 μl/measuring point of a 0.1% crystal violet solution (the pH was set at 3 by adding acetic acid). After three washing cycles of the colored cells with water, the plates were dried at room temperature. The dye was dissolved by adding 100 μl/measuring point of a 10% acetic acid solution. The extinction was determined by photometry at a wavelength of 595 nm. The change of cell growth, in percent, was calculated by normalization of the measured values to the extinction values of the zero-point plate (=0%) and the extinction of the untreated (0 μm) cells (=100%).

Experiment [2] concerns NCI-H460, human non-small-cell lung cancer cells. Description: Proliferation assay, H460. Type of experiment: cell-based. The following applies: NCI-H460, 96 h, 4 days incubation, crystal violet.
Excerpt: as §1

The target of experiment [3] is T1, CDK2/CycE (Homo sapiens, UniProt P24941).
T1 construct: GST; purchased ProQinase GmbH, Freiburg; host or cells: baculovirus-infected insect cells (Sf9)
Briefly: CDK2/CycE Kinase Assay. Type of experiment: biochemical. Conditions: histone IIIS substrate, 33P-ATP, 15 minutes at 22° C. As to the method: Recombinant CDK2- and CycE-GST-fusion proteins, purified from baculovirus-infected insect cells (Sf9), were purchased by ProQinase GmbH, Freiburg. Histone IIIs, which was used as a kinase substrate, was purchased by the Sigma Company.
CDK2/CycE (50 ng/measuring point) was incubated for 15 minutes at 22° C. in the presence of various concentrations of test substances (0 μm, as well as within the range of 0.01-100 μm) in assay buffer [50 mmol of tris/HCl, pH 8.0, 10 mmol of MgCl2, 0.1 mmol of Na ortho-vanadate, 1.0 mmol of dithiothreitol, 0.5 μm of adenosine triphosphate (ATP), 10 μg/measuring point of histone IIIS, 0.2 μCi/measuring point of ^33P-gamma ATP, 0.05% NP40, 12.5% dimethyl sulfoxide]. The reaction was stopped by adding EDTA solution (250 mmol, pH 8.0, 14 μl/measuring point).
From each reaction batch, 10 μl was applied to P30 filter strips (Wallac Company), and non-incorporated ^33P-ATP was removed by subjecting the filter strips to three washing cycles for 10 minutes each in 0.5% phosphoric acid. After the filter strips were dried for one hour at 70° C., the filter strips were covered with scintillator strips (MeltiLex™ A, Wallac Company) and baked for one hour at 90° C. The amount of incorporated ^33P (substrate phosphorylation) was determined by scintillation measurement in a gamma-radiation measuring device (Wallac).

The target in experiment [4] is T2, CDK1/CycB (Homo sapiens, UniProt P06493).
T2 construct: GST; purchased ProQinase GmbH, Freiburg; host or cells: baculovirus-infected insect cells (Sf9)
Briefly: CDK1/CycB Kinase Assay. It is filed as biochemical. The following applies: histone IIIS substrate, 33P-ATP, 15 minutes at 22° C. On the procedure:
Recombinant CDK1- and CycB-GST-fusion proteins, purified from baculovirus-infected insect cells (Sf9), were purchased from ProQinase GmbH, Freiburg. Histone IIIS, used as a kinase substrate, is available commercially from the Sigma Company.
The reaction was stopped by adding EDTA solution (250 mmol, pH 8.0, 14 μl/measuring point).
(§2) From each reaction batch, 10 μl was applied to P30 filter strips (Wallac Company), and non-incorporated 33P-ATP was removed by subjecting the filter strips to three washing cycles for 10 minutes each in 0.5% phosphoric acid. After the filter strips were dried for one hour at 70° C., the filter strips were covered with scintillator strips (MeltiLex™ A, Wallac Company) and baked for one hour at 90° C. The amount of incorporated 33P (substrate phosphorylation) was determined by scintillation measurement in a gamma-radiation measuring device (Wallac).

Experiment [5] deals with MaTu-ADR. Description: Proliferation assay, MaTu-ADR. The following applies: Homo sapiens, 96 h, MaTu-ADR cells, 4 days incubation, crystal violet. It is filed as cell-based.
Excerpt: as §1

The test system of experiment [6] is DU 145, hormone-independent human prostate cancer cells. Briefly: Proliferation assay, DU145. Type of experiment: cell-based. Conditions: DU-145, 96 h, 4 days incubation, crystal violet.
Excerpt: as §1

For experiment [7], the target named is T3, VEGF receptor tyrosine kinase-2 (Homo sapiens, UniProt P35968).
T3 construct: GST; made in house; host or cells: baculovirus-infected insect cells (Sf9)
Description: VEGF Receptor-2 Kinase Assay. It is filed as biochemical. The following applies: 33P-ATP, 10 minutes at 22° C. On the procedure:
VEGF Receptor-2 Kinase Assay
Recombinant VEGF receptor tyrosine kinase-2 was purified as a GST fusion protein from baculovirus-infected insect cells (Sf9). Poly-(Glu4Tyr), which was used as a kinase substrate, was purchased by the Sigma Company.
VEGF receptor tyrosine kinase (90 ng/measuring point) was incubated for 10 minutes at 22° C. in the presence of various concentrations of test substances (0 μm, as well as within the range of 0.001-30 μm) in 30 μl of assay buffer [40 mmol of Tris/HCl, […], 10 mmol of MgCl2, 1 mmol of MnCl2, 3 μmol of Na ortho-vanadate, 1.0 mmol of dithiothreitol, 8 μmol of adenosine trisphosphate (ATP), 27 μg/measuring point of poly-(Glu4Tyr), 0.2 μCi/measuring point of 33P-gamma ATP, 1% dimethyl sulfoxide]. The reaction was stopped by adding EDTA solution (250 mmol, pH 7.0, 10 μl/measuring point).
as §2

[8] abbreviates: poly-(Glu4Tyr) substrate, read-out: VEGF-R2 IC50.

Read-outs that look alike come from different tables or passages of the source. Bounds are passed on as bounds.

T3 sequence (P35968 20-1356): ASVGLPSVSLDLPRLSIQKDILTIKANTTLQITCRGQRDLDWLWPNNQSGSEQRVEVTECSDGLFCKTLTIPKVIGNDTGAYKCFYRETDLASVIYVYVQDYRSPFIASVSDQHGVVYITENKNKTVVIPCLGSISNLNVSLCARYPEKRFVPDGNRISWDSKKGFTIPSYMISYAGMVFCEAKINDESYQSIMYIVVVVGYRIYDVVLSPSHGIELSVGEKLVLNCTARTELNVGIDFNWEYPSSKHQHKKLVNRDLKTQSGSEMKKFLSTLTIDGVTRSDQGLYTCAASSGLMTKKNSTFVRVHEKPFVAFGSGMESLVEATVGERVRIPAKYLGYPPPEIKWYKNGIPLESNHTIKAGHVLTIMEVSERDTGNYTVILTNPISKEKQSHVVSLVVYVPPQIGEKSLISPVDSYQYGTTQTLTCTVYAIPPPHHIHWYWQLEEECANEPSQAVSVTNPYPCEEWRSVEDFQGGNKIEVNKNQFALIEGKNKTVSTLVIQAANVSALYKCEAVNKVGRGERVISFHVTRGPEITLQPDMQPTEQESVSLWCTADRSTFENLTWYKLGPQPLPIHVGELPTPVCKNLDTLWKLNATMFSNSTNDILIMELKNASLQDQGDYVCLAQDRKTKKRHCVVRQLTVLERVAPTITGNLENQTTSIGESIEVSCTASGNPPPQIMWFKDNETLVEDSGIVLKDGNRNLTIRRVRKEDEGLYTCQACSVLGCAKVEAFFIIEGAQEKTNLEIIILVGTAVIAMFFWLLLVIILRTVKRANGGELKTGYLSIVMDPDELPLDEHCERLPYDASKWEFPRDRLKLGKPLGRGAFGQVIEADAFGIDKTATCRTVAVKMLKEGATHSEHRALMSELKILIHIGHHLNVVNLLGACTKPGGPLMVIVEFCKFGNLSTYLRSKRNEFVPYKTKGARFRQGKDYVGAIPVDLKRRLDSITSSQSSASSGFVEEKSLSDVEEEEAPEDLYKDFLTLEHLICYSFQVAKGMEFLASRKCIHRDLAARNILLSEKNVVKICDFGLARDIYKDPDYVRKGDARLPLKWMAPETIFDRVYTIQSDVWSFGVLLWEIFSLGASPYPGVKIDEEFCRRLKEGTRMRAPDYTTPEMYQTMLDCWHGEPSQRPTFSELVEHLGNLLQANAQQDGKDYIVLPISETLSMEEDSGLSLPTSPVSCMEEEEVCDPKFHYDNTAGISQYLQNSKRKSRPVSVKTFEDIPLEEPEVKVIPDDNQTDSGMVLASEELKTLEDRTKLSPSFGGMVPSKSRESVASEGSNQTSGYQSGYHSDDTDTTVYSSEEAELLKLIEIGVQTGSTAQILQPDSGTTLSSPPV
T2 sequence (P06493 whole entry): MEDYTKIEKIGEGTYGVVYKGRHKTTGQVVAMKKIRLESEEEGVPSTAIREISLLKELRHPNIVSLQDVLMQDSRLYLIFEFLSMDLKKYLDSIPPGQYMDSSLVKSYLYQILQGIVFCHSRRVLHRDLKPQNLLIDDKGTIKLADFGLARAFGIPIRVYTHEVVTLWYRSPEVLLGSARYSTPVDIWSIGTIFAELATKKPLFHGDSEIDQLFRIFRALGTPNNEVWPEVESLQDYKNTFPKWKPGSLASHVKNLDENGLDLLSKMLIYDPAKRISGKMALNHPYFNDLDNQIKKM
T2 sequence (P14635 whole entry partner): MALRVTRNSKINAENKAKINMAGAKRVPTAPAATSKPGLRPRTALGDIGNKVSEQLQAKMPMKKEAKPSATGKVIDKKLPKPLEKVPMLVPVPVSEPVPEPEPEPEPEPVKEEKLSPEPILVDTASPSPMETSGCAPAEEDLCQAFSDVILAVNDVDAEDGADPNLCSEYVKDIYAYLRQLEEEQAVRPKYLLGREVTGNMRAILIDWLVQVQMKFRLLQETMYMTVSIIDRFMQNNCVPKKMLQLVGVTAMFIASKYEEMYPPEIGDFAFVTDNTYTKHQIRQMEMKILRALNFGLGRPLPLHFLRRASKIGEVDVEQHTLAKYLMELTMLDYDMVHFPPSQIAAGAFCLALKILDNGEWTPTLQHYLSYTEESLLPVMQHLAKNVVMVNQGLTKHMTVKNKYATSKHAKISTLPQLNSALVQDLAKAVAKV

With `C[C@@H](Nc1nc(Nc2ccc(S(=N)(=O)C3CC3)cc2)ncc1Br)C(C)(C)O` (mixture of isomers) [Example 1.6, (RS)-S-[4-({5-bromo-4-[(R)-(2-hydroxy-1,2-dimethylpropyl)amino]pyrimidin-2-yl}amino)phenyl]-S-cyclopropylsulfoximide], the half-maximal inhibitory concentration (IC50) (as a rule, the midpoint of a concentration-inhibition curve) is 140 nM in experiment [1]; less than 100 nM in experiment [2]; 8 nM in experiment [3]; 14 nM in experiment [4]; less than 100 nM in experiment [5]; less than 100 nM in experiment [6].

Regarding `C[C@H](CO)Nc1nc(Nc2ccc(S(=O)(CC3CC3)=NS(=O)(=O)CC[Si](C)(C)C)cc2)ncc1Br` (mixture of isomers) [Example 1.7, (RS)-S-[4-({5-bromo-4-[(R)-(2-hydroxy-1-methylethyl)amino]pyrimidin-2-yl}amino)phenyl]-S-(cyclopropylmethyl)-N-[2-(trimethylsilyl)ethylsulfonyl]sulfoximide], the IC50 is 1100 nM in experiment [1]; 240 nM in experiment [7] (VEGF-R2 IC50, poly-(Glu4Tyr) substrate); more than 1000 nM in experiment [3]; more than 1000 nM in experiment [4].

As for `COc1cc(Nc2ncc(Br)c(O[C@H](C)[C@@H](C)O)n2)ccc1S(C)(=N)=O` (mixture of isomers) [Example 1.24, (RS)-S-[4-({5-bromo-4-[(1R,2R)-2-hydroxy-1-methylpropoxy]pyrimidin-2-yl}amino)-2-methoxyphenyl]-S-methyl sulfoximide], the IC50 was less than 100 nM in experiment [1]; 70 nM in experiment [2]; 150 nM in experiment [7] (setting [8]); 5 nM in experiment [4]; 80 nM in experiment [5]; 130 nM in experiment [6].

In the case of `CN=S(C)(=O)c1ccc(Nc2ncc(Br)c(N[C@H](C)[C@@H](C)O)n2)cc1` (mixture of isomers) [Example 1.28, (RS)-S-[4-({5-bromo-4-[(1R,2R)-(2-hydroxy-1-methylpropyl)amino]pyrimidin-2-yl}amino)phenyl]-N,S-dimethyl-sulfoximide], the IC50 in experiment [2] was determined as 120 nM; in experiment [3], 7 nM; in experiment [4] it was 14 nM; in experiment [5] it was 200 nM; in experiment [6], 200 nM.

With `CCOC(=O)N=S(C)(=O)c1ccc(Nc2ncc(Br)c(N[C@H](COC)[C@@H](C)O)n2)cc1` (mixture of isomers) [Example 1.34, (RS)-S-{4-[(5-bromo-4-{[(1R,2R)-2-hydroxy-1-(methoxymethyl)propyl]amino}pyrimidin-2-yl)amino]phenyl}-N-(ethoxycarbonyl)-S-methyl sulfoximide], the IC50 was 800 nM in experiment [1], 530 nM in experiment [7] (setting [8]) and 28 nM in experiment [3].

Turning to `C[C@@H](Nc1nc(Nc2ccc(S(C)(=N)=O)cc2)ncc1Br)C(C)(C)O` (mixture of isomers) [Example 1.41, (RS)-S-[4-({5-bromo-4-[(R)-(2-hydroxy-1,2-dimethylpropyl)amino]pyrimidin-2-yl}amino)phenyl]-S-methyl sulfoximide], the IC50 in experiment [1] was found to be 80 nM; in experiment [2] it was 70 nM; in experiment [5] it was 70 nM; in experiment [6] it was 90 nM.

Consider `CCS(=N)(=O)c1ccc(Nc2ncc(Br)c(N[C@H](COC)[C@@H](C)O)n2)cc1` (mixture of isomers) [Example 1.48, (RS)-S-{4-[(5-bromo-4-{[(1R,2R)-2-hydroxy-1-(methoxymethyl)-propyl]amino}pyrimidin-2-yl)amino]phenyl}-S-ethyl sulfoximide], for which the IC50 in experiment [2] was found to be 300 nM; in experiment [7] (setting [8]), 270 nM; in experiment [6], 400 nM.

Consider `CCS(=N)(=O)c1ccc(Nc2ncc(Br)c(N[C@H](C)[C@@H](C)O)n2)cc1` (mixture of isomers) [Example 1.51, (RS)-S-[4-({5-bromo-4-[(1R,2R)-(2-hydroxy-1-methylpropyl)amino]pyrimidin-2-yl}amino)phenyl]-S-ethyl sulfoximide], for which the 50% inhibitory concentration (IC50) was found to be 50 nM in experiment [2]; 26 nM in experiment [7] (setting [8]); 5 nM in experiment [4]; 60 nM in experiment [5]; 50 nM in experiment [6].

As to `C[C@H](CO)Nc1nc(Nc2ccc(S(C)(=O)=NS(=O)(=O)CC[Si](C)(C)C)cc2)ncc1Br` (mixture of isomers) [Example 2.1, (RS)-S-[4-({5-bromo-4-[(R)-(2-hydroxy-1-methylethyl)amino]pyrimidin-2-yl}amino)phenyl]-S-methyl-N-[2-(trimethylsilyl)ethylsulfonyl]sulfoximide], the concentration for half-maximal inhibition (IC50) is 900 nM in experiment [1], 74 nM in experiment [7] (setting [8]) and 390 nM in experiment [3].

Consider `CCOc1nc(Nc2ccc(S(=N)(=O)CC)cc2)ncc1Br` (racemic) [Example 1.63, (RS)-S-{4-[(5-bromo-4-ethoxypyrimidin-2-yl)amino]phenyl}-S-ethyl sulfoximide], for which the IC50 amounted to 900 nM in experiment [1], 89 nM in experiment [7] (setting [8]), 63 nM in experiment [3] and 200 nM in experiment [4].

On to `CS(=N)(=O)c1ccc(Nc2ncc(Br)c(Nc3ccccc3)n2)cc1` (racemic) [Example 2.3, (RS)-S-(4-{[5-bromo-4-(phenylamino)pyrimidin-2-yl]amino}phenyl)-S-methyl sulfoximide], for which the IC50 in experiment [1] stood at 300 nM; in experiment [2], 400 nM; in experiment [4], 160 nM; in experiment [5], 120 nM; in experiment [6] it was 190 nM.

As for `C[C@@H](O)[C@@H](C)Nc1nc(Nc2ccc(S(C)(=N)=O)cc2)ncc1Br` (single isomer, unassigned) [Example 1.2], the IC50 stood at 30 nM in experiment [2], 40 nM in experiment [5] and 40 nM in experiment [6].

`C[C@@H](Nc1nc(Nc2ccc(S(=N)(=O)CCO)cc2)ncc1Br)C(C)(C)O` (single isomer, unassigned) [Example 1.14]: the IC50 in experiment [1] came to 90 nM; in experiment [2] it was 100 nM; in experiment [7] (setting [8]), 69 nM; in experiment [4], 7 nM.

Source of the values: patent publication US7338958B2, “Sulfoximine-substituted pyrimidines as CDK-and/or VEGF inhibitors, their production and use as pharmaceutical agents” (Schering AG, priority 2003, dated 2008).
